Measurements reported in ChEMBL document CHEMBL5247663, “Evaluating the druggability of TrmD, a potential antibacterial target, through design and microbiological profiling of a series of potent TrmD inhibitors” (Bioorg Med Chem Lett, 2023).
Values after ≈ are worked out from the molar mass of the structure shown.

Key:
[1] = target: T1, tRNA (guanine-N(1)-)-methyltransferase (Escherichia coli (strain K12), UniProt P0A873); assay: Inhibition of Escherichia coli TrmD
T1 sequence (P0A873 whole entry): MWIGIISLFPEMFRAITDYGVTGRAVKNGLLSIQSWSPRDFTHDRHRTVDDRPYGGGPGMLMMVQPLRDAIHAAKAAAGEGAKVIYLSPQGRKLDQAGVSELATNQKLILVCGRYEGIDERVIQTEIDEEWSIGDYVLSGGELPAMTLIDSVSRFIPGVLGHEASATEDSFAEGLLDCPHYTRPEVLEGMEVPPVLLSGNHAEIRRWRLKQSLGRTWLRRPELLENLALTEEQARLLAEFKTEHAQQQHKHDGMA

Moraxella catarrhalis = assay: Antibacterial activity against Moraxella catarrhalis ATCC 25240 assessed as inhibition of bacterial growth; type: functional
Bacillus subtilis = assay: Antibacterial activity against Bacillus subtilis ATCC 6633 assessed as inhibition of bacterial growth; type: functional
Burkholderia cepacia = assay: Antibacterial activity against Burkholderia cepacia ATCC 25416 assessed as inhibition of bacterial growth; type: functional
Escherichia coli [2] = assay: Antibacterial activity against efflux-defective Escherichia coli N43 deficit of AcrAB-TolC assessed as inhibition of bacterial growth in presence of 4 ug/ml membrane-permeabilising agent, polymyxin B; type: functional
Enterococcus faecium = assay: Antibacterial activity against Enterococcus faecium ATCC 19434 assessed as inhibition of bacterial growth; type: functional
[3] = system: Staphylococcus epidermidis; assay: Antibacterial activity against Staphylococcus epidermidis ATCC 12228 assessed as inhibition of bacterial growth; type: functional
[4] = Cytotoxicity against human HepG2 cells; type: toxicity, cell-based
Coxiella burnetii = assay: Antibacterial activity against Coxiella burnetii Nine Mile assessed as inhibition of bacterial growth; type: functional
Haemophilus influenzae = assay: Antibacterial activity against Haemophilus influenzae ATCC 49247 assessed as inhibition of bacterial growth; type: functional
Francisella tularensis = assay: Antibacterial activity against Francisella tularensis-Schu S4 assessed as inhibition of bacterial growth; type: functional
Yersinia pestis = assay: Antibacterial activity against Yersinia pestis CO92 assessed as inhibition of bacterial growth; type: functional
Neisseria gonorrhoeae = assay: Antibacterial activity against Neisseria gonorrhoeae ATCC 49226 assessed as inhibition of bacterial growth; type: functional
Pseudomonas aeruginosa = assay: Antibacterial activity against Pseudomonas aeruginosa ATCC 27853 assessed as inhibition of bacterial growth; type: functional
Streptococcus pneumoniae = assay: Antibacterial activity against Streptococcus pneumoniae ATCC 49619 assessed as inhibition of bacterial growth; type: functional
Acinetobacter baumannii = assay: Antibacterial activity against Acinetobacter baumannii NCTC 13420 assessed as inhibition of bacterial growth; type: functional
Escherichia coli [5] = assay: Antibacterial activity against efflux-defective Escherichia coli N43 deficit of AcrAB-TolC assessed as inhibition of bacterial growth; type: functional
[6] = target: T1, tRNA (guanine-N(1)-)-methyltransferase; assay: Binding affinity to Escherichia coli TrmD by surface plasmon resonance assay
Escherichia coli [7] = assay: Antibacterial activity against Escherichia coli W4573 harboring functional AcrAB-TolC assessed as inhibition of bacterial growth
[8] = Lipophilicity, logD of the compound at pH 7.4; type: physicochemical; conditions: buffer

SMILES | IC50 [1] | MIC (Escherichia coli [2]) | MIC (Haemophilus influenzae) | MIC (Escherichia coli [5]) | further results
NC(=O)c1ccc(N)cc1 | 670 µM |  |  |  | 
CNC(=O)Cn1ccc2cc(C(N)=O)cnc21 | 64 µM |  |  |  | 
CC(C)(CNc1ccc(C(N)=O)cn1)c1cccc(CN)c1 | 0.009 µM | > 1020 µg/mL | 256 µg/mL (≈ 858 µM) | > 1020 µg/mL | MIC (Moraxella catarrhalis): > 256 µg/mL; MIC (Bacillus subtilis): > 256 µg/mL; MIC (Burkholderia cepacia): > 256 µg/mL; MIC (Enterococcus faecium): > 256 µg/mL; MIC [3]: > 256 µg/mL; CC50 [4]: > 256 µg/mL; MIC (Coxiella burnetii): > 64 µg/mL; MIC (Francisella tularensis): > 256 µg/mL; MIC (Yersinia pestis): 256 µg/mL (≈ 858 µM); MIC (Neisseria gonorrhoeae): > 256 µg/mL; MIC (Pseudomonas aeruginosa): > 256 µg/mL; MIC (Streptococcus pneumoniae): > 256 µg/mL; MIC (Acinetobacter baumannii): > 256 µg/mL
NC(=O)c1ccc2nc(N)sc2c1 | 150 µM |  |  |  | Kd [6]: 420 µM
CC(C)(Nc1ccc(C(N)=O)cn1)c1ccccc1 | 2.1 µM |  |  |  | 
NC(=O)c1cnc2c(ccn2CC(=O)N2CCNCC2)c1 | 0.8 µM |  |  |  | 
CC(C)(C)CNc1ccc(C(N)=O)cn1 | 0.14 µM |  |  |  | 
CC[C@H]1OC(=O)[C@H](C)[C@@H](O[C@H]2C[C@@](C)(OC)[C@@H](O)[C@H](C)O2)[C@H](C)[C@@H](O[C@@H]2O[C@H](C)C[C@H](N(C)C)[C@H]2O)[C@](C)(O)C[C@@H](C)C(=O)[C@H](C)[C@@H](O)[C@]1(C)O [ERYTHROMYCIN] |  | 0.5 µg/mL | 4 µg/mL (≈ 5.45 µM) | 8 µg/mL (≈ 10.9 µM) | MIC (Escherichia coli [7]): 64 µg/mL (≈ 87.2 µM)
CN(C(=O)Cn1c(C2CC2)cc2cc(C(N)=O)cnc21)[C@@H]1C[C@H]2CC[C@@H](C1)N2 | 0.036 µM | > 1020 µg/mL | > 512 µg/mL | > 512 µg/mL | logD [8]: 0.2
NC(=O)c1cnc2c(c1)cc(C1CC1)n2CC(=O)N1CCNCC1 | 0.013 µM | > 1020 µg/mL |  | > 1020 µg/mL | MIC (Moraxella catarrhalis): > 256 µg/mL; MIC (Bacillus subtilis): > 256 µg/mL; MIC (Burkholderia cepacia): > 256 µg/mL; MIC (Enterococcus faecium): > 256 µg/mL; MIC [3]: > 256 µg/mL; CC50 [4]: > 256 µg/mL; MIC (Coxiella burnetii): > 64 µg/mL; MIC (Francisella tularensis): > 256 µg/mL; MIC (Yersinia pestis): 256 µg/mL (≈ 782 µM); MIC (Neisseria gonorrhoeae): > 256 µg/mL; MIC (Pseudomonas aeruginosa): > 256 µg/mL; logD [8]: -0.1; MIC (Streptococcus pneumoniae): > 256 µg/mL; MIC (Acinetobacter baumannii): > 256 µg/mL
CC(C)(CNc1ccc(C(N)=O)cn1)c1ccccc1 | 0.027 µM | 256 µg/mL | 512 µg/mL (≈ 1900 µM) | 512 µg/mL (≈ 1900 µM) | MIC (Moraxella catarrhalis): 128 µg/mL (≈ 475 µM); MIC (Bacillus subtilis): > 256 µg/mL; MIC (Burkholderia cepacia): > 256 µg/mL; MIC (Enterococcus faecium): > 256 µg/mL; MIC [3]: > 256 µg/mL; CC50 [4]: > 128 µg/mL; MIC (Coxiella burnetii): > 64 µg/mL; MIC (Francisella tularensis): > 256 µg/mL; MIC (Yersinia pestis): 256 µg/mL (≈ 950 µM); MIC (Neisseria gonorrhoeae): 128 µg/mL (≈ 475 µM); MIC (Pseudomonas aeruginosa): > 256 µg/mL; logD [8]: 3; MIC (Streptococcus pneumoniae): > 256 µg/mL; MIC (Acinetobacter baumannii): > 256 µg/mL
NCc1ccc(Cn2ccc3cc(C(N)=O)ccc32)cc1 | 13 µM |  |  |  | 
NC(=O)c1ccc(NC2CCCC2)nc1 | 0.11 µM |  |  |  | 
CC(C)(CNc1ccc(C(N)=O)cn1)c1cccc(N2CCNCC2)c1 | 0.05 µM | 1020 µg/mL | > 1020 µg/mL | 1020 µg/mL (≈ 2900 µM) | logD [8]: 1.6
NCc1ccc(CNc2ccc(C(N)=O)cn2)cc1 | 2.3 µM |  |  |  | 
NC(=O)c1ccc(N)nc1 [6-AMINONICOTINAMIDE] | 26 µM |  |  |  | Kd [6]: 1.3 µM
CN1CCN(C(=O)Cn2c(C3CC3)cc3cc(C(N)=O)cnc32)CC1 | 0.038 µM | > 512 µg/mL | > 1020 µg/mL | > 512 µg/mL | logD [8]: 2.7
NC(=O)c1cnc2c(ccn2CC(=O)NC2CNC2)c1 | 4.5 µM |  |  |  | 
OCc1cc(-c2cccs2)[nH]n1 | 320 µM |  |  |  | Kd [6]: 260 µM

SMILES | IC50 [1] | MIC (Escherichia coli [2]) | MIC (Haemophilus influenzae) | MIC (Escherichia coli [5]) | further results
NC(=O)c1cnc2c(c1)cc(C1CC1)n2CC(=O)N1CCNC(=O)C1 | 0.12 µM | > 1020 µg/mL | > 512 µg/mL | > 1020 µg/mL | 
NCc1ccc(Cn2c(C3CC3)cc3cc(C(N)=O)cnc32)cc1 | 0.31 µM | 1020 µg/mL | > 1020 µg/mL | 1020 µg/mL (≈ 3200 µM) | logD [8]: 1.4
NC(=O)c1ccc(NCc2cccc(N3CCNC(C(F)(F)F)C3)c2)nc1 (centres undefined) | > 10 µM |  |  |  | 
NC(=O)c1ccc2[nH]ccc2c1 | 160 µM |  |  |  | 
CC(C)(CNc1ccc(C(N)=O)cn1)c1cccc(NC2CNC2)c1 | 0.13 µM | > 1020 µg/mL | > 512 µg/mL | > 1020 µg/mL | logD [8]: 1
NC(=O)c1cnc2c(ccn2CC(=O)NC2CCNCC2)c1 | 6.5 µM |  |  |  | 
NC(=O)c1ccc(NC2(c3ccccc3)CC2)nc1 | 0.27 µM |  |  |  | 
CN(C(=O)Cn1ccc2cc(C(N)=O)cnc21)C1CCNCC1 | 0.83 µM |  |  |  | 
NCc1cccc(CNc2ccc(C(N)=O)cn2)c1 | 1.4 µM |  |  |  | 
CN1CCC(N(C)C(=O)Cn2c(C3CC3)cc3cc(C(N)=O)cnc32)CC1 | 0.039 µM | > 1020 µg/mL | > 256 µg/mL | > 512 µg/mL | 
CC(C)[C@H]1CN(C(=O)Cn2c(C3CC3)cc3cc(C(N)=O)cnc32)CCN1 | 0.096 µM | > 1020 µg/mL | 1020 µg/mL (≈ 2770 µM) | > 1020 µg/mL | 
CN(C(=O)Cn1c(C2CC2)cc2cc(C(N)=O)cnc21)C1CCNCC1 | 0.037 µM | > 512 µg/mL | > 1020 µg/mL | > 256 µg/mL | logD [8]: -0.2
NCc1ccc(Cn2ccc3cc(C(N)=O)cnc32)cc1 | 1.9 µM |  |  |  | 
C[C@H](Nc1ccc(C(N)=O)cn1)c1ccccc1 | 1.3 µM |  |  |  | 
NC(=O)c1ccc(NC2(c3cccc(N4CCNCC4)c3)CC2)nc1 | 0.011 µM | > 1020 µg/mL | 1020 µg/mL (≈ 3030 µM) | > 1020 µg/mL | logD [8]: 1.4
NC(=O)c1ccc(N)cn1 | > 1000 µM |  |  |  | 
C[C@@H](Nc1ccc(C(N)=O)cn1)c1ccccc1 | 48 µM |  |  |  | 
NC(=O)c1ccc(NCc2cccc(N3CCNCC3)c2)nc1 | 0.31 µM | > 1020 µg/mL | 1020 µg/mL (≈ 3290 µM) | > 1020 µg/mL | logD [8]: 1
NC(=O)c1ccc(NCc2ccccc2)nc1 | 3.2 µM |  |  |  | 
